Test results taken from article PMC6325200, “Effects of Microplate Type and Broth Additives on Microdilution MIC Susceptibility Assays” (Antimicrobial Agents and Chemotherapy, 2018).
In brackets after ≈: the same amount, converted by molar mass.

Tests used:
E. coli ATCC 25922 = assay: microbe, parasite or virus in culture; conditions: n = 2
Outline: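 Broth microdilution with 2-fold serial compound dilutions in MH broth, using cultures diluted 40-fold and grown at 37°C for 2 to 3 h, with or without Tween. Variants included 2% beractant added to mid-log cultures, or 50% human serum in MHB.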

A. baumannii ATCC 19606 = assay: microbe, parasite or virus in culture; conditions: Acinetobacter baumannii, n = 2
Outline: (§1)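 First, a sample of each culture was diluted 40-fold in fresh Mueller-Hinton broth containing or lacking Tween. Next, this was incubated 2 to 3 h at 37°C. Compounds, alongside comparator antibiotics, were tested as 2-fold serial dilutions on 96-well plates.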

K. pneumoniae ATCC 13883 = assay: microbe, parasite or virus in culture; conditions: Klebsiella pneumoniae, n = 2
Outline: as §1

P. aeruginosa ATCC 10145 = assay: microbe, parasite or virus in culture; conditions: Pseudomonas aeruginosa, n = 2
Outline: as §1

E. coli = conditions: literature value; cited from earlier work

## COc1cc(Cc2cnc(N)nc2N)cc(OC)c1OC [Trimethoprim, trimethoprim]
E. coli ATCC 25922; Corning NBS plate, MHB −T80, no additive
  MIC: 0.25 to 0.5 µg/mL
E. coli ATCC 25922; Corning PS plate, MHB +0.002% T80, no further additive
  MIC: 1 to 2 µg/mL
E. coli ATCC 25922; Corning PS plate, MHB −T80, no additive
  MIC: 0.25 to 0.5 µg/mL
E. coli ATCC 25922; Corning TC plate, MHB +0.002% T80, no further additive
  MIC: 0.5 to 1 µg/mL
E. coli ATCC 25922; Corning TC plate, MHB −T80, no additive
  MIC: 0.25 to 0.5 µg/mL
E. coli ATCC 25922; Escherichia coli, ATCC25922, 24 h, Corning NBS, MH + 2% LHB, 2% LS
  MIC: 1 µg/mL
E. coli ATCC 25922; Escherichia coli, ATCC25922, 24 h, Corning NBS, MH + 2% LHB, 50% HS
  MIC: 1 to 2 µg/mL
E. coli ATCC 25922; Escherichia coli, ATCC25922, 24 h, Corning NBS, MH + 2% LHB, no additive
  MIC: 1 µg/mL
E. coli ATCC 25922; Escherichia coli, ATCC25922, 24 h, Corning NBS, MH + T80, 2% LS
  MIC: 2 µg/mL
E. coli ATCC 25922; Escherichia coli, ATCC25922, 24 h, Corning NBS, MH + T80, 50% HS
  MIC: 2 µg/mL
E. coli ATCC 25922; Escherichia coli, ATCC25922, 24 h, Corning PS, MH + 2% LHB, 2% LS
  MIC: 1 to 2 µg/mL
E. coli ATCC 25922; Escherichia coli, ATCC25922, 24 h, Corning PS, MH + 2% LHB, 50% HS
  MIC: 1 to 8 µg/mL
E. coli ATCC 25922; Escherichia coli, ATCC25922, 24 h, Corning PS, MH + 2% LHB, no additive
  MIC: 1 to 2 µg/mL
E. coli ATCC 25922; Escherichia coli, ATCC25922, 24 h, Corning PS, MH + T80, 2% LS
  MIC: 1 to 2 µg/mL
E. coli ATCC 25922; Escherichia coli, ATCC25922, 24 h, Corning PS, MH + T80, 50% HS
  MIC: 1 to 2 µg/mL
E. coli ATCC 25922; Escherichia coli, ATCC25922, 24 h, Corning TC, MH + 2% LHB, 2% LS
  MIC: 1 to 2 µg/mL
E. coli ATCC 25922; Escherichia coli, ATCC25922, 24 h, Corning TC, MH + 2% LHB, 50% HS
  MIC: 1 to 2 µg/mL
E. coli ATCC 25922; Escherichia coli, ATCC25922, 24 h, Corning TC, MH + 2% LHB, no additive
  MIC: 1 µg/mL
E. coli ATCC 25922; Escherichia coli, ATCC25922, 24 h, Corning TC, MH + T80, 2% LS
  MIC: 1 to 2 µg/mL
E. coli ATCC 25922; Escherichia coli, ATCC25922, 24 h, Corning TC, MH + T80, 50% HS
  MIC: 1 to 2 µg/mL
E. coli ATCC 25922; Escherichia coli, ATCC25922, 24 h, Trek PS, MH + 2% LHB, 2% LS
  MIC: 0.5 to 1 µg/mL
E. coli ATCC 25922; Escherichia coli, ATCC25922, 24 h, Trek PS, MH + 2% LHB, 50% HS
  MIC: 1 µg/mL
E. coli ATCC 25922; Escherichia coli, ATCC25922, 24 h, Trek PS, MH + 2% LHB, no additive
  MIC: 1 µg/mL
E. coli ATCC 25922; Escherichia coli, ATCC25922, 24 h, Trek PS, MH + T80, 2% LS
  MIC: 2 µg/mL
E. coli ATCC 25922; Escherichia coli, ATCC25922, 24 h, Trek PS, MH + T80, 50% HS
  MIC: 2 to 4 µg/mL
E. coli ATCC 25922; Escherichia coli, ATCC25922, Corning NBS plate, MHB +0.002% T80, no further additive
  MIC: 1 µg/mL (≈ 3.44 µM)
E. coli ATCC 25922; Escherichia coli, ATCC25922, Corning NBS plate, MHB −T80, no additive
  MIC: 0.25 to 0.5 µg/mL (≈ 0.861 to 1.72 µM)
E. coli ATCC 25922; Escherichia coli, ATCC25922, Corning NBS, MH, 2% LS
  MIC: 1 to 2 µg/mL (≈ 3.44 to 6.89 µM)
E. coli ATCC 25922; Escherichia coli, ATCC25922, Corning NBS, MH, 50% HS
  MIC: 1 to 2 µg/mL (≈ 3.44 to 6.89 µM)
E. coli ATCC 25922; Escherichia coli, ATCC25922, Corning PS plate, MHB +0.002% T80, no further additive
  MIC: 1 to 2 µg/mL (≈ 3.44 to 6.89 µM)
E. coli ATCC 25922; Escherichia coli, ATCC25922, Corning PS plate, MHB −T80, no additive
  MIC: 0.25 to 0.5 µg/mL (≈ 0.861 to 1.72 µM)
E. coli ATCC 25922; Escherichia coli, ATCC25922, Corning PS, MH, 2% LS
  MIC: 1 µg/mL (≈ 3.44 µM)
E. coli ATCC 25922; Escherichia coli, ATCC25922, Corning PS, MH, 50% HS
  MIC: 1 to 2 µg/mL (≈ 3.44 to 6.89 µM)
E. coli ATCC 25922; Escherichia coli, ATCC25922, Corning TC plate, MHB +0.002% T80, no further additive
  MIC: 0.5 to 1 µg/mL (≈ 1.72 to 3.44 µM)
E. coli ATCC 25922; Escherichia coli, ATCC25922, Corning TC plate, MHB −T80, no additive
  MIC: 0.25 to 0.5 µg/mL (≈ 0.861 to 1.72 µM)
E. coli ATCC 25922; Escherichia coli, ATCC25922, Corning TC, MH, 2% LS
  MIC: 1 to 2 µg/mL (≈ 3.44 to 6.89 µM)
E. coli ATCC 25922; Escherichia coli, ATCC25922, Corning TC, MH, 50% HS
  MIC: 0.5 to 1 µg/mL (≈ 1.72 to 3.44 µM)
E. coli ATCC 25922; Escherichia coli, ATCC25922, Nunc PS plate, MHB +0.002% T80
  MIC: 0.25 to 0.5 µg/mL (≈ 0.861 to 1.72 µM)
E. coli ATCC 25922; Escherichia coli, ATCC25922, Nunc PS plate, MHB −T80
  MIC: 0.25 µg/mL (≈ 0.861 µM)
E. coli ATCC 25922; Escherichia coli, ATCC25922, Nunc U TC plate, MHB +0.002% T80
  MIC: 0.25 to 0.5 µg/mL (≈ 0.861 to 1.72 µM)
E. coli ATCC 25922; Escherichia coli, ATCC25922, Nunc U TC plate, MHB −T80
  MIC: 0.25 to 0.5 µg/mL (≈ 0.861 to 1.72 µM)
E. coli ATCC 25922; Escherichia coli, ATCC25922, Nunc flat TC plate, MHB +0.002% T80
  MIC: 0.25 to 0.5 µg/mL (≈ 0.861 to 1.72 µM)
E. coli ATCC 25922; Escherichia coli, ATCC25922, Nunc flat TC plate, MHB −T80
  MIC: 0.25 to 0.5 µg/mL (≈ 0.861 to 1.72 µM)
E. coli ATCC 25922; Escherichia coli, ATCC25922, Trek PS plate, MHB +0.002% T80, no further additive
  MIC: 2 µg/mL (≈ 6.89 µM)
E. coli ATCC 25922; Escherichia coli, ATCC25922, Trek PS plate, MHB −T80, no additive
  MIC: 0.5 to 1 µg/mL (≈ 1.72 to 3.44 µM)
E. coli ATCC 25922; Escherichia coli, ATCC25922, Trek PS, MH, 2% LS
  MIC: 1 to 4 µg/mL (≈ 3.44 to 13.8 µM)
E. coli ATCC 25922; Escherichia coli, ATCC25922, Trek PS, MH, 50% HS
  MIC: 1 µg/mL (≈ 3.44 µM)
E. coli ATCC 25922; Trek PS plate, MHB −T80, no additive
  MIC: 0.5 to 1 µg/mL
A. baumannii ATCC 19606; ATCC19606, Corning NBS, MHB +T80
  MIC: 64 µg/mL (≈ 220 µM)
A. baumannii ATCC 19606; ATCC19606, Corning NBS, MHB -T80
  MIC: 16 to 32 µg/mL (≈ 55.1 to 110 µM)
A. baumannii ATCC 19606; ATCC19606, Corning PS, MHB +T80
  MIC: > 64 µg/mL
A. baumannii ATCC 19606; ATCC19606, Corning PS, MHB -T80
  MIC: > 64 µg/mL
A. baumannii ATCC 19606; ATCC19606, Corning TC, MHB +T80
  MIC: 32 to 64 µg/mL (≈ 110 to 220 µM)
A. baumannii ATCC 19606; ATCC19606, Corning TC, MHB -T80
  MIC: 16 to 32 µg/mL (≈ 55.1 to 110 µM)
K. pneumoniae ATCC 13883; ATCC13883, Corning NBS, MHB +T80
  MIC: 1 to 2 µg/mL (≈ 3.44 to 6.89 µM)
K. pneumoniae ATCC 13883; ATCC13883, Corning NBS, MHB -T80
  MIC: 4 to 8 µg/mL (≈ 13.8 to 27.6 µM)
K. pneumoniae ATCC 13883; ATCC13883, Corning PS, MHB +T80
  MIC: 2 to 4 µg/mL (≈ 6.89 to 13.8 µM)
K. pneumoniae ATCC 13883; ATCC13883, Corning PS, MHB -T80
  MIC: 1 to 8 µg/mL (≈ 3.44 to 27.6 µM)
K. pneumoniae ATCC 13883; ATCC13883, Corning TC, MHB +T80
  MIC: 4 to 16 µg/mL (≈ 13.8 to 55.1 µM)
K. pneumoniae ATCC 13883; ATCC13883, Corning TC, MHB -T80
  MIC: 4 to 16 µg/mL (≈ 13.8 to 55.1 µM)
P. aeruginosa ATCC 10145; ATCC10145, Corning NBS, MHB +T80
  MIC: > 64 µg/mL
P. aeruginosa ATCC 10145; ATCC10145, Corning NBS, MHB -T80
  MIC: > 64 µg/mL
P. aeruginosa ATCC 10145; ATCC10145, Corning PS, MHB +T80
  MIC: > 64 µg/mL
P. aeruginosa ATCC 10145; ATCC10145, Corning PS, MHB -T80
  MIC: > 64 µg/mL
P. aeruginosa ATCC 10145; ATCC10145, Corning TC, MHB +T80
  MIC: > 64 µg/mL
P. aeruginosa ATCC 10145; ATCC10145, Corning TC, MHB -T80
  MIC: > 64 µg/mL
E. coli
  MIC (literature): 0.06–0.25 ([72]) µg/ml
